Measured values reported in patent US20070009537A1, “Antimicrobial activity of antibodies producing reactive oxygen species” (priority 2002, published 2007).
“Also recorded” adds a separate entry of the source. Where two headings read alike, the source gives them in different places.

Key:
[1] = Decomposition of O3 under aqueous conditions; type: physicochemical; conditions: PBS pH 7.4, 22° C., OD 260 nm
Description: The rate of decomposition of O3 under the aqueous conditions employed was measured by the following method. Ozone, produced by a passage of O2 through a Polymetrics ozonizer, was bubbled for 2 min through a phosphate buffered saline (PBS, pH 7.4) solution in a quartz cuvette (1 cm^2) at room temperature. The time-dependent change in optical density was then measured at 260 nm (ε=2,700 M^−1 cm^−1) for at least 5 half lives in a Hitachi u.v./vis spectrophotometer equipped with a thermostatted rack at 22° C. See Takeuchi et al., Anal. Chim. Acta. 230, 183 (1990). […] The sensitivity of the assay was limited by spectrophotometer accuracy to±0.1% (˜1 μM) of the OD at t=0.

S. typhimurium = assay: Bactericidal assay (CFU recovery); type: cell-based, Salmonella typhimurium
Description: In a typical experiment, a culture of S. typhimurium in log phase growth at OD600=0.2-0.3 was repeatedly pelleted (3×3,500 rpm) and resuspended in PBS (pH 7.4). The PBS suspended cells were then added to glass vials and cooled to 4° C. hematoporphyrin IX solution (40 μM) and antibody (20 μM) were added. The vials were placed either on a light box (visible light, 2.8 mW cm^−2) or in the dark at 4° C. Incubation was for 1 hour. Viability was determined by recovery of colony forming units (CFUs) on agar plates. Each experiment was performed with at least duplicate samples.

E. coli = assay: Bactericidal assay (CFU recovery), strain not specified; type: cell-based
Description: (§1) In a typical experiment, a culture of E. coli (in log phase growth, OD600=0.2-0.3) was repeatedly pelleted (3×3,500 rpm) and resuspended in PBS (pH 7.4). The PBS suspended cells were then added to glass vials and cooled to 4° C. Hematoporphyrin IX (40 μM) and antibody (20 μM) were added and the vials were either placed on a light box (visible light, 2.8 mW cm^−2) or in the dark at 4° C. and incubated for 1 h. Viability was determined by recovery of colony forming units (CFUs) on agar plates. Each experiment was performed at least in duplicate.
(§2) In a typical experiment, a culture of E. coli (in log phase growth, OD600=0.2-0.3) was repeatedly washed in PBS by pelleting (3×3,500 rpm) the cells and resuspending them in PBS (pH 7.4). The PBS suspended cells were then added to glass vials and cooled to 4° C. Hematoporphyrin IX (40 μM) and antibody (20 μM) were added and the vials were either placed on a light box (visible light, 2.8 mW cm^−2) or in the dark at 4° C. and incubated for 1 h. Viability was determined by recovery of colony forming units (CFUs) on agar plates. Each experiment was performed at least in duplicate.

E. coli XL1-blue = assay: Bactericidal assay (CFU recovery); type: cell-based
Description: as §1, §2

E. coli O112a,c = type: cell-based; conditions: 40 μM, white light 2.7 mW cm^−2, 1 h, PBS pH 7.4, 4±1° C.
Description: as §1, §2

[2] = H2O2 production by UV irradiation of antibody/protein samples (Amplex Red assay); type: biochemical
Description: Aliquots (10 μL) were removed at timed intervals throughout the assay. H2O2 concentration was determined by the amplex red method. Each data point is reported as the mean±SEM of at least duplicate measurements: • polyclonal (poly) immunoglobulin (Ig) G, human; O poly-IgG, horse; □ poly-IgG, sheep; ∇ monoclonal (m) IgG (WD1-6G6), murine; Δ poly-IgM, human; ⋄ mIgG (92H2), murine; ▪ β-galactosidase (β-gal); ▴ chick ovalbumin (OVA); ▾ α-lactalbumin (α-lact); ♦ bovine serum albumin (BSA).
An aliquot (20 μl) from the protein solution was removed and added into a well of a 96-well microtiter plate (Costar) containing reaction buffer (80 μl). Working solution (100 μl/400 μM Amplex Red reagent 1/2 units/ml horseradish peroxidase) was then added, and the plate was incubated in the dark for 30 min. The fluorescence of the well components was then measured using a CytoFluor Multiwell Plate Reader (Series 4000, PerSeptive Biosystems, Framingham, Mass.; Ex/Em: 530/580 nm). The hydrogen peroxide concentration was determined using a standard curve. All experiments were run in duplicate, and the rate is quoted as the mean of at least two measurements.
The resultant solution was transferred to a glass, screw-cap vial and irradiated with UV light for 30 min. The concentration of H2O2 was determined after 30 min.

O=[O+][O-] [Clone O3, ozone]
half-life (t½) [1]: 66 s | half-life (t½) ([1]; listed as ozone): 6 s

O=C(O)CN(CCN(CC(=O)O)CC(=O)O)CC(=O)O [EDTA]
effect on survival of bacteria in the assay system (S. typhimurium; 2 mM): no effect on the survival of bacteria | effect on survival of bacteria in the assay system (E. coli; 2 mM): no effect on the survival of bacteria

CC1=C(CCC(=O)O)c2cc3[nH]c(cc4nc(cc5[nH]c(cc1n2)c(C)c5C(C)O)C(C)=C4C(C)O)c(C)c3CCC(=O)O (centres unmarked) [hematoporphyrin IX]
bactericidal activity of sensitizer alone (E. coli XL1-blue; 40 μM, white light 2.7 mW cm^−2, 1 h, PBS pH 7.4, 4±1° C.): negligible bactericidal activity | bactericidal activity of sensitizer alone (E. coli O112a,c): negligible bactericidal activity

N[C@@H](Cc1c[nH]c2ccccc12)C(=O)O [tryptophan]
H2O2 production during photo-oxidation ([2]; near-UV irradiation, tryptophan 20 μM): ca. 0.5 mole equivalents

bovine serum albumin: non-specific protein control
bacterial killing (S. typhimurium; 20 μM): no bacterial killing | bacterial killing (E. coli; 20 μM): no bacterial killing

catalase
protection against the bactericidal activity of non-specific antibodies (E. coli XL1-blue; FIG. 17A, catalase 13 mU/mL): complete protection | effect on bactericidal activity of non-specific antibodies (E. coli; catalase 13 mU/mL, 11 non-specific murine monoclonal antibodies): completely attenuated

chick ovalbumin: chick-egg ovalbumin
ability to reduce 1O2 (produce reactive oxygen species from singlet oxygen), panel of other proteins [2]: one of the most efficient proteins at reducing ^1O2

superoxide dismutase: enzyme from Sigma, non-immunoglobulin control protein
ability to reduce 1O2 (produce reactive oxygen species from singlet oxygen), panel of other proteins [2]: do not reduce ^1O2; also recorded: does not reside | rate of hydrogen peroxide generation ([2]; superoxide dismutase irradiated in PBS): the same as irradiation of PBS alone

β-galactosidase: most efficient non-immunoglobulin protein at generating H2O2
H2O2 photo-production ([2]; near-UV irradiation, from its 39 Trp residues): 5.9 mol eq.

B1: RNase A: ribonuclease, non-immunoglobulin control protein (protein, UniProt P61823 27-150, looked up)
Ribonuclease pancreatic: KETAAAKFERQHMDSSTSAASSSNYCNQMMKSRNLTKDRCKPVNTFVHESLADVQAVCSQKNVACKNGQTNCYQSYSTMSITDCRETGSSKYPNCAYKTTQANKHIIVACEGNPYVPVHFDASV
ability to reduce 1O2 (produce reactive oxygen species from singlet oxygen), panel of other proteins [2]: do not reduce ^1O2 | ability to reduce 1O2 (produce reactive oxygen species from singlet oxygen), panel of other proteins ([2]; listed as RNaseA): does not reside
